Data taken from ChEMBL document CHEMBL6182934, “Photo-clenbuterol: Optical Control of β2-Adrenergic Receptor Signaling by Photoswitchable Ligand Efficacy” (J Med Chem, 2025).

Test: Photothermal stability of compound in HBSS buffer assessed as thermal relaxation half life measured after pre-illumination of compound to reach cis-isomer
Type: physicochemical

Row | half-life [days] | Compound
1 | 112 | CC(C)(C)NCC(O)c1cc(Cl)c(/N=N/c2ccccc2)c(Cl)c1 (racemic)
2 | 11 | CC(C)(C)NCC(O)c1cc(Cl)c(/N=N/c2ccccc2)c(C#N)c1 (racemic)
3 | 26 | CC(C)(C)NCC(O)c1cc(Cl)c(/N=N/c2c(Cl)cccc2Cl)c(Cl)c1 (racemic)
4 | 38 | CC(C)(C)NCC(O)c1ccc(/N=N/c2ccccc2)c(Cl)c1 (racemic)
5 | 29 | CC(C)(C)NCC(O)c1ccc(/N=N/c2ccccc2)cc1 (racemic)
